In patent US20060110790A1, “Expression system for large functional proteins” (priority 2002, published 2006):

Target: T1, ABCR (Homo sapiens, UniProt P78363)
T1 construct: Membranes from transfected cells expressing either full-length ABCR (lanes 1 & 2) or co-expressing the N and C halves; expressed in transfected cells; host or cells: transfected cells (COS-1 or EBNA293)
Test: 8-azido-ATP/ADP nucleotide trapping in membranes from transfected cells
Assay type: binding
Settings: 50 μM all-trans retinal, 5 μM 8-azido-[α-32P]ATP, 37° C.
Description: FIG. 7. Nucleotide trapping by ABCR and co-expressed N and C halves. A. Effect of orthovanadate on nucleotide trapping. Membranes from transfected cells were incubated with 5 μM 8-azido-[α-^32P]ATP at 37° C., washed, and tightly bound nucleotides were UV crosslinked. Lane 1, full-length ABCR; lane 2, full-length ABCR incubated with 800 μM orthovanadate; lane 3, co-expressed N and C halves; lane 4, co-expressed N- and C-halves incubated with 800 μM orthovanadate. B. Effect of temperature and retinal on nucleotide trapping. Lane 1, full-length ABCR labeled at 0° C.; lane 2, full-length ABCR labeled at 37° C.; lane 3, full-length ABCR labeled at 37° C. in the presence of 50 μM all-trans retinal; lane 4, co-expressed N and C halves labeled at 0° C.; lane 5, co-expressed N and C halves labeled at 37° C.; lane 6, co-expressed N and C halves labeled at 37° C. in the presence of 50 μM all-trans retinal.
8-Azido-ATP Trapping—Membranes were incubated with 5 μM 8-azido-[α-^32P]ATP in 50 μl of labeling buffer with or without 800 μM sodium orthovanadate for 10 min at 37° C. All-trans retinal and 50 μM DTT were added where indicated. Binding was stopped by the addition of ice-cold 20 mM Tris-HCl, pH 7.4, the membranes were collected by centrifugation and washed one more time. Samples exposed to orthovanadate were washed in the presence of 800 μM orthovanadate. […]

T1 sequence (P78363 whole entry): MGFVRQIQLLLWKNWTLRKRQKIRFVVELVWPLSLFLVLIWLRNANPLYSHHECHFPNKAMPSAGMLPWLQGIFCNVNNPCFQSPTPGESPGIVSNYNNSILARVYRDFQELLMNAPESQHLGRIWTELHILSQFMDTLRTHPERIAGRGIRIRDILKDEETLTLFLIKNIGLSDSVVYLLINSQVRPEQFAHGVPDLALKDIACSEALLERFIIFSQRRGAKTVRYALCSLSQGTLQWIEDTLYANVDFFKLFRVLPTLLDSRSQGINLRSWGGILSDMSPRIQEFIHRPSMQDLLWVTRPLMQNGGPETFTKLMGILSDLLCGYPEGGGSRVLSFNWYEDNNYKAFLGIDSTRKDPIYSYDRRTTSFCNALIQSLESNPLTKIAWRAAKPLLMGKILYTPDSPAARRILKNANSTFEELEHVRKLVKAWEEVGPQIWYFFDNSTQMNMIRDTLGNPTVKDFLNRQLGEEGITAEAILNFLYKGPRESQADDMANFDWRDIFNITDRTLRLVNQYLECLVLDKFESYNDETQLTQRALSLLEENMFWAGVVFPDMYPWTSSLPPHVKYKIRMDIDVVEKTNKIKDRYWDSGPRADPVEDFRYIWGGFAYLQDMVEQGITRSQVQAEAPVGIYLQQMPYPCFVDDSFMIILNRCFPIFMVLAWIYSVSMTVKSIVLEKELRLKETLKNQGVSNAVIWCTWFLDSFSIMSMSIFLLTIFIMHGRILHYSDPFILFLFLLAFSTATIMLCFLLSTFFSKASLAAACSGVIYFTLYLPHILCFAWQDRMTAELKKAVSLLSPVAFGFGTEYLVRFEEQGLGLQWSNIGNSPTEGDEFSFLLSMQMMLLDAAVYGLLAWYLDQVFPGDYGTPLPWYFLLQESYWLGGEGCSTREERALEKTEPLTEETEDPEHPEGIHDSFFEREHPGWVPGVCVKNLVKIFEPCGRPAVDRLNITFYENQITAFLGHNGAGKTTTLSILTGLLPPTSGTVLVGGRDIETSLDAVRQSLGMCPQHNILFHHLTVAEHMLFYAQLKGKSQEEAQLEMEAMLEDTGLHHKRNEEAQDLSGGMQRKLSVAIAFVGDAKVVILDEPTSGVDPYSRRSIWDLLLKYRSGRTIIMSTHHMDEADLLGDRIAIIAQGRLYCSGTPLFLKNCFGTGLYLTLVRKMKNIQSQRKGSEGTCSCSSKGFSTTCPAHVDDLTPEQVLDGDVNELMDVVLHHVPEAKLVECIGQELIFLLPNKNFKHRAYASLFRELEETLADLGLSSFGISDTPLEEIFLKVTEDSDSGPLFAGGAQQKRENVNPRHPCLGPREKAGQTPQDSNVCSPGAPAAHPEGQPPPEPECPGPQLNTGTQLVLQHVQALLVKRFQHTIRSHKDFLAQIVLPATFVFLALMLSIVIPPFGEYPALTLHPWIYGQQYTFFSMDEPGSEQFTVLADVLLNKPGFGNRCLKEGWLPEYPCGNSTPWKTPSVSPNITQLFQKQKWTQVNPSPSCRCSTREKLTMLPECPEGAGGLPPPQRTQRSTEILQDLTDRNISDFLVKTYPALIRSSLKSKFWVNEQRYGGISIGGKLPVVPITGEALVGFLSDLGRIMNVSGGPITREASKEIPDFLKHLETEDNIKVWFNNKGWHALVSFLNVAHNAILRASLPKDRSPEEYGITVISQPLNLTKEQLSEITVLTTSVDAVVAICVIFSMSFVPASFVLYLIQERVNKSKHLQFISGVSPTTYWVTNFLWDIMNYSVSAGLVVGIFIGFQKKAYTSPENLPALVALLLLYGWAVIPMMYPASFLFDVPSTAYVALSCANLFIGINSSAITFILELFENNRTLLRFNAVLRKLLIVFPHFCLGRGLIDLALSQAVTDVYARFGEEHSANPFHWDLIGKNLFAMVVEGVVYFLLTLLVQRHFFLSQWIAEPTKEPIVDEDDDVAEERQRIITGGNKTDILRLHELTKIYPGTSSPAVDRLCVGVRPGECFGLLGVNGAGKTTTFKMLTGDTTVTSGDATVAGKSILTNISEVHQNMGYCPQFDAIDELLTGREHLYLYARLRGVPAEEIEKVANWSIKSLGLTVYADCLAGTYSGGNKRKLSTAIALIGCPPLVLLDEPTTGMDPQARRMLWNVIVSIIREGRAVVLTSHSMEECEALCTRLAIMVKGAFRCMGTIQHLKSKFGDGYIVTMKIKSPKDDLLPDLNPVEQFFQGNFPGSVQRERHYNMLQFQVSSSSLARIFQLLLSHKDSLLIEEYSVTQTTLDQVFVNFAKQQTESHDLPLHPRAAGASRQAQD

For `CC1=C(/C=C/C(C)=C/C=C/C(C)=C/C=O)C(C)(C)CCC1` [all-trans retinal], the “effect on 8-azido ATP/ADP trapping” value was “not dependent on sodium orthovanadate or influenced”.
